Drawing on patent US8071600B2, “Derivatives of 4-piperazin-1-yl-4-benzo[B]thiophene suitable for the treatment of CNS disorders” (Otsuka Pharmaceutical Co., Ltd., priority 2005, dated 2011), this text covers Ki and melting point for 39 molecules.

Broadly, the Ki is a measure of affinity in units of concentration, obtained from inhibition or displacement. A word on the melting point: it is the temperature, or range, at which the solid turns liquid.

Where a name gives a salt, the structure may show the parent alone.

T2 sequence (P14842 whole entry): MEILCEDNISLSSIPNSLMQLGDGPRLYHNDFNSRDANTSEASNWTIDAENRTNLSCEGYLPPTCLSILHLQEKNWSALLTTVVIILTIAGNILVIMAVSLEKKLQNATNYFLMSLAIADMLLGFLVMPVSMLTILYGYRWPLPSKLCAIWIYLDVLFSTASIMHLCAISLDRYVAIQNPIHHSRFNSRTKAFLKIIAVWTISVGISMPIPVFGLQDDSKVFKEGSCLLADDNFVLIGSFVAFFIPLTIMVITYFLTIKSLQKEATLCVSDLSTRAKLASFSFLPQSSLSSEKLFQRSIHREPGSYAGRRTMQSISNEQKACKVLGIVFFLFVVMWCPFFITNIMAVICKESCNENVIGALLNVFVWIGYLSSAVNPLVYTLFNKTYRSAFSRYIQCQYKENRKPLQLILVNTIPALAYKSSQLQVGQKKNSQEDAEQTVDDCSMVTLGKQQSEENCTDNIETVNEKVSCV

The target in one series is T1, Dopamine D2 receptor (Rattus norvegicus, UniProt P61169).
T1 construct: from tissue; host or cells: Wistar rat brain, corpus striatum membranes
T1 sequence (P61169 whole entry): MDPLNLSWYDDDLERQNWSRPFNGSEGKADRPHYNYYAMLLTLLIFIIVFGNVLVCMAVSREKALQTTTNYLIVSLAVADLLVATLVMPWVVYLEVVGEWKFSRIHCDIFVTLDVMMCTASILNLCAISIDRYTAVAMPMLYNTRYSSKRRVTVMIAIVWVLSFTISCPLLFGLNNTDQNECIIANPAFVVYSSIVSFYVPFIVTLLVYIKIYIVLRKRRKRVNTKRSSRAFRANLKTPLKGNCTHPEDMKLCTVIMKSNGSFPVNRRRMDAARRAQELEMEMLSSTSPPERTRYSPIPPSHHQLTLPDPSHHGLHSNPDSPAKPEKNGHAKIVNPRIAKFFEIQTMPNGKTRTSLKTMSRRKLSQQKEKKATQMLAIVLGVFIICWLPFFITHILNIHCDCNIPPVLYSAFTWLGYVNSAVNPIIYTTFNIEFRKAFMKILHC
Put plainly: Dopamine D2 receptor binding assay ([3H]-raclopride). The conditions noted are these: Dopamine D2 receptor binding test, rat corpus striatum membrane, Ki calculated from IC50 by Cheng-Prussoff formula. The protocol: 1) Dopamine D2 Receptor Binding Assay
The assay was performed according to the method by Kohler et al. (Kohler C, Hall H, Ogren S O and Gawell L, Specific in vitro and in vivo binding of 3H-raclopride. A potent substituted benzamide drug with high affinity for dopamine D-2 receptors in the rat brain. Biochem. Pharmacol., 1985; 34: 2251-2259).
Wistar male rats were decapitated, the brain was retrieved immediately and corpus striatum was taken out. It was homogenized in 50 mM tris(hydroxymethyl)aminomethane (Tris)-hydrochloric acid buffer (pH 7.4) of a volume 50 times of the weight of the tissue using a homogenizer with a high-speed rotating blade, and centrifuged at 4° C., 48,000×g for 10 minutes. The obtained precipitate was suspended again in the above-described buffer of a volume 50 times of the weight of the tissue and after incubated at 37° C. for 10 minutes, centrifuged in the above-described condition. The obtained precipitate was suspended in 50 mM (Tris)-hydrochloric acid buffer (containing 120 mM NaCl, 5 mM KCl, 2 mM CaCl2, 1 mM MgCl2, pH 7.4) of a volume 25 times of the weight of the tissue and preserved by freezing at −85° C. till it was used for binding assay as a membrane specimen.
The binding assay was performed using 40 μl of the membrane specimen, 20 μl of [^3H]-raclopride (final concentration 1 to 2 nM), 20 μl of a test drug and 50 mM Tris-hydrochloric acid buffer (containing 120 mM NaCl, 5 mM KCl, 2 mM CaCl2, 1 mM MgCl2, pH 7.4) so that the total amount was 200 μl (final dimethylsulfoxide concentration 1%). The reaction was performed at room temperature for 1 hour and terminated by conducting suction filtration with a cell harvester on a glass fiber filter plate. The filter plate made of glass fiber was washed with 50 mM Tris-hydrochloric acid buffer (pH 7.4), and after dried, a microplate liquid scintillation cocktail was added and the radioactivity was measured with a microplate scintillation counter. Radioactivity in the presence of 10 μM (+)-butaclamol hydrochloride was assumed as nonspecific binding.
(§1) IC50 value was calculated from concentration-dependent reaction using a non-linear analysis program. Ki value was calculated from IC50 value using Cheng-Prussoff formula.
On to `CN1CCN(Cc2ccc(OCCCN3CCN(c4cccc5sccc45)CC3)cc2)CC1` [Example 314], for which the Ki was 0.8 nM.
For `Cc1ccc(OCCCN2CCN(c3cccc4sccc34)CC2)cn1` [Example 40], the Ki is 3.1 nM.
Turning to `CCNC(=O)c1cc(OCCCN2CCN(c3cccc4sccc34)CC2)n(C)n1` [Example 62], the inhibition constant (Ki) is 1.6 nM.
For `CNC(=O)c1cc(OCCCN2CCN(c3cccc4sccc34)CC2)cs1` [Example 76], the Ki was 2.5 nM.
For `c1cc(N2CCN(CCCCOc3ccncc3)CC2)c2ccsc2c1` [Example 80], the inhibition constant Ki was 1.6 nM.
Consider `CCNC(=O)c1csc(OCCCN2CCN(c3cccc4sccc34)CC2)n1` [Example 73], for which the Ki is 1.3 nM.

The next series has as its target T2, Serotonin 5-HT2A receptor (Rattus norvegicus, UniProt P14842).
T2 construct: from tissue; host or cells: Wistar rat brain, frontal cortex membranes
Put plainly: Serotonin 5-HT2A receptor binding assay ([3H]-Ketanserin). The settings on record: Serotonin 5-HT2A receptor binding test, rat frontal cortex membrane, Ki calculated from IC50 by Cheng-Prussoff formula. The protocol:
2) Serotonin 5-HT2A Receptor Binding Assay
The assay was performed according to the method by Leysen J E et al. (Leysen J E, Niemegeers C J E, Van Nueten J M and Laduron P M. [3H] Ketanserin (R 41 468), a selective 3H-ligand for serotonin 2 receptor binding sites. Mol. Pharmacol., 1982, 21: 301-314).
Wistar male rats were decapitated, the brain was retrieved immediately and frontal cortex was taken out. It was homogenized in 0.25 M sucrose of a volume 10 times of the weight of the tissue using a Teflon glass homogenizer, and centrifuged at 4° C., 1,000×g for 10 minutes. The obtained supernatant was transferred to another centrifuge tube and suspended in 0.25 M sucrose of a volume 5 times of the weight of the tissue and the precipitate was centrifuged in the above-described condition. The obtained supernatant was combined with the supernatant obtained above and adjusted to a volume 40 times of the weight of the tissue with 50 mM Tris-hydrochloric acid buffer (pH 7.4), and centrifuged at 4° C., 35,000×g for 10 minutes. The obtained precipitate was suspended again in the above-described buffer of a volume 40 times of the weight of the tissue and centrifuged in the above-described condition. The obtained precipitate was suspended in the above-described buffer of a volume 20 times of the weight of the tissue and preserved by freezing at −85° C. till it was used for binding assay as a membrane specimen.
The binding assay was performed using 40 μl of the membrane specimen, 20 μl of [^3H]-Ketanserin (final concentration 1 to 3 nM), 20 μl of a test drug and 50 mM Tris-hydrochloric acid buffer (pH 7.4) so that the total amount was 200 μl (final dimethylsulfoxide concentration 1%). The reaction was performed at 37° C. for 20 minutes and terminated by conducting suction filtration with a cell harvester on a glass fiber filter plate.
The filter plate made of glass fiber was washed with 50 mM Tris-hydrochloric acid buffer (pH 7.4), and after dried, a microplate liquid scintillation cocktail was added and the radioactivity was measured with a microplate scintillation counter. Radioactivity in the presence of 10 μM spiperone was assumed as nonspecific binding.
as §1
Take `CN1CCN(Cc2ccc(OCCCN3CCN(c4cccc5sccc45)CC3)cc2)CC1` [Example 314]: the Ki was 0.8 nM.
`Cc1ccc(OCCCN2CCN(c3cccc4sccc34)CC2)cn1` [Example 40]: the Ki was 0.6 nM.
For the molecule `CCNC(=O)c1cc(OCCCN2CCN(c3cccc4sccc34)CC2)n(C)n1` [Example 62], the Ki was 4.7 nM.
For the molecule `CNC(=O)c1cc(OCCCN2CCN(c3cccc4sccc34)CC2)cs1` [Example 76], the inhibition constant Ki was 1.7 nM.
On to `c1cc(N2CCN(CCCCOc3ccncc3)CC2)c2ccsc2c1` [Example 80], for which the inhibitory constant (Ki) is 3.3 nM.
As for `CCNC(=O)c1csc(OCCCN2CCN(c3cccc4sccc34)CC2)n1` [Example 73], the Ki is 5.6 nM.

System in another series: not given
Experiment: not given
Conditions: not given
`CCNC(=O)c1csc(OCCCN2CCN(c3cccc4sccc34)CC2)n1` (as salt: hydrochloride) [Example 73] showed a melting point of 151 to 153.5 °C.
As to `Cn1nc(C(=O)O)cc1OCCCN1CCN(c2cccc3sccc23)CC1` [Example 2, 5-[3-(4-benzo[b]thiophen-4-yl-piperazin-1-yl)propoxy]-1-methyl-1H-pyrazole-3-carboxylic acid], the melting point is 114.5 to 118 °C.
As to `CCN(CC)CCc1ccc(OCCCN2CCN(c3cccc4sccc34)CC2)cc1` (as salt: hydrochloride) [Example 368], the melting point was 224 to 232 °C (dec.).
On the same count and under the same terms, under `O=C1Nc2cc(OCCCCN3CCN(c4cccc5sccc45)CC3)ccc2CO1` (as salt: hydrochloride) [Example 133] stands 253 to 258 °C (dec.); under `CN(C)C(=O)c1csc(OCCCN2CCN(c3cccc4sccc34)CC2)n1` (as salt: hydrochloride) [Example 1113], 178 to 182 °C.
In turn, `CN(C)c1cc(OCCCCN2CCN(c3cccc4sccc34)CC2)n(C)n1` (as salt: hydrochloride) [Example 1138] gave a melting point of 156.5 to 158.5 °C.
The molecule `CN(C)C(=O)N1CCC(OCCCN2CCN(c3cccc4sccc34)CC2)CC1` (as salt: hydrochloride) [Example 1110] showed a melting point of 202 to 205 °C.
In turn, `COc1cc(N2CCN(C(C)=O)CC2)cc(CO)c1OCCCN1CCN(c2cccc3sccc23)CC1` (as salt: hydrochloride) [Example 1084] showed a melting point of 217.5 to 221 °C.
Turning to `COc1cc(N2CCCC2=O)cc(CO)c1OCCCN1CCN(c2cccc3sccc23)CC1` (as salt: hydrochloride) [Example 359], the melting point lay in the range of 144 to 145 °C.
The same measure, in the same setting: under `Cl.c1cc(N2CCN(CCCOc3ccc4c(c3)CCN4)CC2)c2ccsc2c1` stands 222.4 to 223.9 °C.
`CN(C)C(=O)Nc1cc(OCCCCN2CCN(c3cccc4sccc34)CC2)n(C)n1.Cl`: the melting point lay within 186 to 187.5 °C.
For the molecule `COC(=O)N1CCN(c2cc(C=O)c(OCCCN3CCN(c4cccc5sccc45)CC3)c(OC)c2)CC1` (as salt: hydrochloride) [Example 1086], the melting point is 225 °C (dec.).
On the same count and under the same terms, in the case of `CCNC(=O)c1cc(OCCCN2CCN(c3cccc4sccc34)CC2)no1` (as salt: hydrochloride) [Example 72] it was 219.5 to 222.5 °C (dec.); in that of `CN1CCOc2cc(OCCCN3CCN(c4cccc5sccc45)CC3)ccc21.Cl`, 248.1 to 249.6 °C.
`Cc1ccc(OCCCN2CCN(c3cccc4sccc34)CC2)cn1` (as salt: hydrochloride) [Example 40] yielded a melting point of 234 to 236 °C.
Regarding `c1cc(N2CCN(CCCCOc3ccncc3)CC2)c2ccsc2c1` (as salt: hydrochloride) [Example 80], the melting point was in the range of 183 to 185 °C.
Consider `COc1cc(N2CCOC2=O)cc(C)c1OCCCN1CCN(c2cccc3sccc23)CC1` (as salt: hydrochloride) [Example 358], for which the melting point was 247.5 to 251 °C (dec.).
Turning to `O=C1Cc2ccc(OCCCCN3CCN(c4cccc5sccc45)CC3)cc2N1` (as salt: hydrochloride) [Example 127], the melting point lay within 215 to 217 °C.
As for `CN(C)Cc1ccc(OCCCN2CCN(c3cccc4sccc34)CC2)c(Cl)c1` (as salt: hydrochloride) [Example 303], the melting point is 259 °C (dec.).
Still for that read-out and setting: under `CN1CNc2ccc(OCCCN3CCN(c4cccc5sccc45)CC3)cc2C1.Cl` stands 203.1 to 204.4 °C.
Turning to `COc1cc(N2CCN(C(C)=O)CC2=O)cc(C)c1OCCCN1CCN(c2cccc3sccc23)CC1` (as salt: hydrochloride) [Example 1079], the melting point lay in the range of 218 to 221.5 °C.
Molecule `C=CCn1nc(C(=O)NC)cc1OCCCN1CCN(c2cccc3sccc23)CC1` [Example 3098, 1-allyl-5-[3-(4-benzo[b]thiophen-4-yl-piperazin-1-yl)propoxy]-1H-pyrazole-3-carboxylic acid methylamide] had a melting point of 138.5 to 140.5 °C.
The molecule `Cl.c1cc(N2CCN(CCCOc3ccc4c(c3)NCCO4)CC2)c2ccsc2c1` gave a melting point of 207.9 to 208.8 °C.
Regarding `CCN(C)Cc1ccc(OCCCN2CCN(c3cccc4sccc34)CC2)c(C)c1` (as salt: hydrochloride) [Example 307], the melting point is 256.5 °C (dec.).
`CCS(=O)(=O)Nc1cc(C)c(OCCCN2CCN(c3cccc4sccc34)CC2)c(OC)c1.Cl` returned a melting point of 235.5 to 237.5 °C.
On the same count and under the same terms, under `COc1cc(NC(=O)CN)cc(C)c1OCCCN1CCN(c2cccc3sccc23)CC1` (as salt: hydrochloride) [Example 1060] stands 268 °C (dec.); under `COc1cc(N2CCN(C(C)=O)CC2)cc(C)c1OCCCN1CCN(c2cccc3sccc23)CC1` (as salt: hydrochloride) [Example 1083], 257 to 261 °C (dec.).
On the same count and under the same terms, in the case of `COc1cc(N2CCCC2)cc(C)c1OCCCN1CCN(c2cccc3sccc23)CC1` (as salt: hydrochloride) [Example 1076] it was 246.5 to 249 °C (dec.); in that of `COc1cc(NC=O)cc(C)c1OCCCN1CCN(c2cccc3sccc23)CC1.Cl`, 247.5 to 253 °C (dec.).
`CCNC(=O)c1cc(OCCCN2CCN(c3cccc4sccc34)CC2)n(C)n1` (as salt: hydrochloride) [Example 62] had a melting point of 210.5 to 214.5 °C.
With `CCNC(=O)c1ccc(OCCCN2CCN(c3cccc4sccc34)CC2)nc1` (as salt: hydrochloride) [Example 26], the melting point was in the range of 201.5 to 207.5 °C.
Same read-out and setting: under `CN(C)C(=O)Nc1cc(OCCCN2CCN(c3cccc4sccc34)CC2)n(C)n1.Cl` stands 174 to 176.5 °C; under `COC(=O)c1cc(OCCCN2CCN(c3cccc4sccc34)CC2)n(C)n1` [Example 1, methyl 5-[3-(4-benzo[b]thiophen-4-yl-piperazin-1-yl)propoxy]-1-methyl-1H-pyrazole-3-carboxylate], 109 to 110.5 °C.
